According to patent US4457865A, “Sialic acid specific slug lectin” (Research Corporation, priority 1982, dated 1984):
Read-outs that look alike come from different tables or passages of the source.

B1: fetuin: sialoprotein, highly purified bovine fetuin (protein, UniProt P12763 19-359, looked up)
Alpha-2-HS-glycoprotein: IPLDPVAGYKEPACDDPDTEQAALAAVDYINKHLPRGYKHTLNQIDSVKVWPRRPTGEVYDIEIDTLETTCHVLDPTPLANCSVRQQTQHAVEGDCDIHVLKQDGQFSVLFTKCDSSPDSAEDVRKLCPDCPLLAPLNDSRVVHAVEVALATFNAESNGSYLQLVEISRAQFVPLPVSVSVEFAVAATDCIAKEVVDPTKCNLLAEKQYGFCKGSVIQKALGGEDVRVTCTLFQTQPVIPQPQPDGAEAEAPSAVPDAAGPTPSAAGPPVASVVVGPSVVAVPLPLHRAHYDLRHTFSGVASVESSSGEAFHVGKTPIVGQPSIPGGPVRLCPGRIRYFKI

How the values were obtained:
[1] = test system: AS-40-80 fraction (partially purified LFA); assay: Inhibition of hemagglutination by partially purified LFA (AS-40-80 fraction); type: cell-based, Limax flavus; details: for Inhibition (%) AS-40-80 Fraction: 20 μg protein of AS-40-80 per assay
Protocol: (§1) Hemagglutination Assay: Aliquots of lectin were adjusted to 0.5 ml by addition of tris-saline buffer which contained 0.4 mg/ml gelatin. To this was added 0.5 ml of a solution containing human erythrocytes that had been washed several times with 0.9% NaCl and whose absorbance at 620 nm was ~2. After standing at room temperature for 30 min. the cells were gently pelleted by centrifugation in a Dynac centrifuge. The cells were resuspended by shaking and allowed to stand for 5 min. in order to permit aggregating cells to settle. The absorbance at 620 nm of the upper one-half ml of the erythrocyte suspension was measured and the data were plotted as A620 versus μg or μl of lectin. One unit of activity is defined as the amount of LFA which gave a 50% agglutination. Percent agglutination was calculated as follows: [formula]
(§2) A 0.5 ml aliquot of erythrocytes was added to the lectin plus inhibitor solution and the percent agglutination determined as described above. The percent inhibition of agglutination represents the difference between the percent agglutination with lectin alone and that obtained with lectin plus inhibitor.

[2] = test system: purified LFA (sialic acid specific slug lectin); assay: Inhibition of hemagglutination by purified LFA; type: cell-based, Limax flavus; details: for Inhibition (%) Purified LFA: 0.34 μg purified LFA per assay; for IC50: read-out: Concentration giving 50% inhibition of hemagglutination, affinity purified LFA; for Ability to inhibit hemagglutination by purified slug lectin (in words): some 17 carbohydrates tested, concentrations as high as 10-25 mM
Protocol: as §1, §2

[3] = test system: slug lectin; assay: Double diffusion of slug lectin in agar gel against sialoproteins; type: binding, Limax flavus

Molecule | Inhibition (%) AS-40-80 Fraction ([1]; carbohydrate 25.0 mM) | Inhibition (%) Purified LFA ([2]; carbohydrate 25.0 mM) | Inhibition of hemagglutination by the 40-80% ammonium sulfate fraction (in words) [1] | other results
OC[C@H]1OC(O)[C@H](O)[C@@H](O)[C@H]1O (single isomer, unassigned) [D (+) Galactose] | 0% | 0% | – | –
OC[C@H]1OC(O)[C@@H](O)[C@@H](O)[C@@H]1O (single isomer, unassigned) [D (+) Mannose] | 0% | 0% | – | –
OC1OC[C@@H](O)[C@H](O)[C@H]1O (single isomer, unassigned) [D (+) Xylose] | 0% | 0% | – | –
OC[C@H]1OC(O)[C@H](O)[C@@H](O)[C@@H]1O (single isomer, unassigned) [D (-) Glucose] | 0% | 0% | – | –
O=C(O)[C@H]1OC(O)[C@H](O)[C@@H](O)[C@@H]1O (single isomer, unassigned) [D (-) Glucuronic Acid] | 0% | 0% | – | –
N[C@H]1C(O)O[C@H](CO)[C@H](O)[C@@H]1O (stereo partly drawn) [Galactosamine] | 45% | 0% | inhibition of hemagglutination | –
N[C@H]1C(O)O[C@H](CO)[C@@H](O)[C@@H]1O (stereo partly drawn) [Glucosamine] | 19% | 0% | inhibition of hemagglutination | –
OC[C@H]1O[C@@H](O[C@H]2[C@H](O)[C@@H](O)C(O)O[C@@H]2CO)[C@H](O)[C@@H](O)[C@H]1O (stereo partly drawn) [Lactose] | 0% | 0% | – | –
CC(=O)N[C@H]1C(O)O[C@H](CO)[C@H](O)[C@@H]1O (stereo partly drawn) [N--Acetyl-D-Galactosamine] | – | – | inhibition of hemagglutination | Inhibition (%) AS-40-80 Fraction ([1]; carbohydrate 10.0 mM): 75%; Inhibition (%) Purified LFA ([2]; carbohydrate 10.0 mM): 0%
CC(=O)N[C@H]1C(O)O[C@H](CO)[C@@H](O)[C@@H]1O (stereo partly drawn) [N--Acetyl-D-Glucosamine] | – | – | inhibition of hemagglutination | Inhibition (%) AS-40-80 Fraction ([1]; carbohydrate 10.0 mM): 53%; Inhibition (%) Purified LFA ([2]; carbohydrate 10.0 mM): 0%
CC(=O)N[C@H]1[C@H]([C@H](O)[C@H](O)CO)OC(O)(C(=O)O)C[C@@H]1O (stereo partly drawn) [N--Acetylneuraminic Acid, N-acetylneuraminic acid] | – | – | inhibition of hemagglutination | Inhibition (%) AS-40-80 Fraction ([1]; carbohydrate .05 mM): 6%; Inhibition (%) AS-40-80 Fraction ([1]; carbohydrate .10 mM): 17%; Inhibition (%) AS-40-80 Fraction ([1]; carbohydrate .15 mM): 27%; Inhibition (%) AS-40-80 Fraction ([1]; carbohydrate .20 mM): 94%; Inhibition (%) Purified LFA ([2]; carbohydrate .05 mM): 1%; Inhibition (%) Purified LFA ([2]; carbohydrate .10 mM): 28%; Inhibition (%) Purified LFA ([2]; carbohydrate .15 mM): 54%; Inhibition (%) Purified LFA ([2]; carbohydrate .20 mM): 100%; IC50 [2]: 130 µM; Ability to inhibit hemagglutination by purified slug lectin (in words) [2]: effective
O=C(CO)N[C@H]1[C@H]([C@H](O)[C@H](O)CO)OC(O)(C(=O)O)C[C@@H]1O (stereo partly drawn) [N--Glycolyneuraminic Acid, N-glycolylneuraminic acid] | – | – | inhibition of hemagglutination | Inhibition (%) AS-40-80 Fraction ([1]; carbohydrate 1.0 mM): 88%; Inhibition (%) AS-40-80 Fraction ([1]; carbohydrate .25 mM): 3%; Inhibition (%) AS-40-80 Fraction ([1]; carbohydrate .50 mM): 20%; Inhibition (%) AS-40-80 Fraction ([1]; carbohydrate .75 mM): 56%; Inhibition (%) Purified LFA ([2]; carbohydrate 1.0 mM): 85%; Inhibition (%) Purified LFA ([2]; carbohydrate .25 mM): 0%; Inhibition (%) Purified LFA ([2]; carbohydrate .50 mM): 2%; Inhibition (%) Purified LFA ([2]; carbohydrate .75 mM): 14%; IC50 [2]: 900 µM; IC50 ([2]; listed as GlyNeu): 810 µM; Ability to inhibit hemagglutination by purified slug lectin (in words) [2]: effective
OC[C@H]1O[C@@](CO)(O[C@H]2O[C@H](CO)[C@@H](O)[C@H](O)[C@H]2O)[C@@H](O)[C@@H]1O [Sucrose] | 0% | 0% | – | –
O[C@@H]1[C@@H](O)[C@@H](O)CO[C@H]1O [α (+) Arabinose] | 0% | 0% | – | –
C[C@@H]1O[C@@H](O)[C@@H](O)[C@H](O)[C@@H]1O [α-L(-) Fucose] | 0% | 0% | – | –
CO[C@H]1O[C@H](CO)[C@@H](O)[C@H](O)[C@H]1O [α-Methyl-D-Glucoside] | 0% | 0% | – | –
CO[C@H]1O[C@H](CO)[C@@H](O)[C@H](O)[C@@H]1O [α-Methyl-D-Mannose] | 0% | 0% | – | –
B1 | – | – | – | Inhibitory activity on slug lectin hemagglutination after asialylation ([2]; after incubation at 80° for one hour in 0.1N H2SO4): complete loss of inhibitory activity; Precipitin lines in double diffusion against slug lectin after asialylation ([3]; asialylated sialoprotein): lost; Precipitin lines in double diffusion against slug lectin ([3]; native sialoprotein): yielded precipitin lines
